Reference: US20240418701A1, “SINGLE MOLECULE IDEN[…] A REACTIVE HETERO-NANOPORE” (priority 2021, published 2024)
Where two headings read alike, the source gives them in different places.

Tests used:
[1] = target: T1, MspA-PBA (phenylboronic acid modified hetero-octameric (N90C)1(M2)7 MspA) (Mycolicibacterium smegmatis, UniProt A0QR29, D117C/D118N/D120N/D145R/D161R/E166K); format: binding, Mycobacterium smegmatis
T1 construct: H6 (hexa-histidine) (C); 3-(maleimide) phenylboronic acid (MPBA) adduct on the thiol of Cys90; made in house; host or cells: E. coli BL21 (DE3) pLysS, co-expression from pETDuet-1
Description: FIG. 46: Definition of event parameters. […] The measurement was carried out as described in Methods in Example 2. The chambers were filled with a 1.5 M KCl buffer (1.5 M KCl, 10 mM MOPS, pH 7.0). A transmembrane potential of +200 mV was continually applied. AMP was added to cis with a final concentration of 300 μM. The open pore current (Ip), the residual current (Ib), the dwell time (τoff) and the inter-event duration (τon) are defined as marked on the trace. The percentage blockage (% Ib) is defined as (Ip−Ib)/Ip. The noise amplitude (S.D.) is defined as the standard deviation of the blockage level.
(§1) NMPs consist of a ribose, a phosphate group and a nucleobase, serving as monomeric units of RNA. […] Experimentally, single channel recording was performed using MspA-PBA in a 1.5 M KCl buffer (1.5 M KCl, 10 mM MOPS, pH 7.0) (Methods in Example 2). A transmembrane potential of +200 mV was continually applied. Four canonical NMPs, adenine mononucleotide (AMP), guanine mononucleotide (GMP), cytosine mononucleotide (CMP) and uracil mononucleotide (UMP) were tested as analytes (FIG. 33d). Either type of NMP was added to cis at a final concentration of 300 μM. Subsequently, successive resistive pulses caused by either type of NMP were immediately observed (FIG. 33d). However, no events were observed when M2 MspA was tested, confirming that the PBA located at the pore constriction is critical in the generation of NMP sensing events (FIG. 44). At this condition, ˜1800 events/h were obtained from each pore. The pore could normally withstand a few hours of continuous measurement. Deoxyribonucleoside monophosphate (dNMP) fails to report any event when sensed by MspA-PBA (FIG. 45). This is expected because dNMPs have no cis-diol structure and can't form the boronate ester which is necessary for sensing. The molecular mechanism of sensing which results from reversible covalent bond formation between an NMP and the PBA at the pore constriction is thus confirmed.
To describe NMP sensing events quantitatively, the event dwell time (τoff), the inter-event interval (τon), the percentage blockage (% Ib=(Ip−Ib)/Ip) and the noise amplitude (S.D.) were derived as described in FIG. 46. Generally, the histograms of τoff and τon show an exponential distribution, and could be fitted to derive the mean time constants τoff or τon, respectively. The histograms of % Ib and S.D. show a Gaussian distribution, which could be fitted to derive the mean percentage blockage % Ib and S.D., respectively. During NMP sensing, by varying the NMP concentrations in cis, the reciprocal of dwell time (1/τoff) remains constant, consistent with a unimolecular dissociation mechanism. Whereas the reciprocal of the inter-event interval (1/τon) linearly correlates with the NMP concentration in cis (Tables 8-11, FIG. 47-50), consistent with a bimolecular model. The dependence of the applied voltage during NMP sensing was investigated using AMP as a representative analyte. […] This is expected because in a pH 7.0 buffer, the phosphate group of NMP is negatively charged and the electrophoretic force applied on the NMP analyte can strongly regulate the rate of event appearance and the event dwell time.

[2] = target: M2 MspA (Mycolicibacterium smegmatis, UniProt A0QR29, D117N/D118N/D120N/D145R/D161R/E166K); experiment: NMP sensing performed with M2 MspA (control without PBA); format: binding, Mycobacterium smegmatis; settings: NMP 1 mM in cis, +200 mV
Description: FIG. 44: NMP sensing performed with M2 MspA. (a-d) Representative traces of (a) CMP, (b) UMP, (c) AMP, (d) GMP sensing performed with M2 MspA. All measurements were carried out as described in Methods in Example 2 in a 1.5 M KCl buffer (1.5 M KCl, 10 mM MOPS, pH 7.0). A +200 mV bias was continually applied. NMPs were added to cis with a final concentration of 1 mM for each analyte.
as §1

[3] = NMP 100 μM in cis, +200 mV, three independent measurements
[4] = NMP 200 μM in cis, +200 mV, three independent measurements
[5] = NMP 300 μM in cis, +200 mV, N=3
[6] = NMP 300 μM in cis, +200 mV, three independent measurements
[7] = NMP 400 μM in cis, +200 mV, three independent measurements
[8] = NMP 500 μM in cis, +200 mV, three independent measurements
[9] = voltage series: +40 mV, AMP 500 μM in cis
[10] = voltage series: +80 mV, AMP 500 μM in cis
[11] = voltage series: +120 mV, AMP 500 μM in cis
[12] = voltage series: +160 mV, AMP 500 μM in cis
[13] = voltage series: +200 mV, AMP 500 μM in cis

M2 MspA, sequence (A0QR29 28-211 D117N/D118N/D120N/D145R/D161R/E166K): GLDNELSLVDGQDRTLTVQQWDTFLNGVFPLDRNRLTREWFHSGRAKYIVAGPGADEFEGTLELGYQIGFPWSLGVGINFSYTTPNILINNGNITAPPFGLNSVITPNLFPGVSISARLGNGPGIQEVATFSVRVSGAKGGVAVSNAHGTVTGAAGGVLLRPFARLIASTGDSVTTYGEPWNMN

Nc1ncnc2c1ncn2[C@@H]1O[C@H](COP(=O)(O)O)[C@@H](O)[C@H]1O [AMP, adenosine-5′-monophosphate]
1/τoff [1, 3]: 14.9 ± 0.5 s⁻¹ | 1/τon [1, 3]: 0.54 ± 0.11 s⁻¹ | 1/τoff [1, 4]: 15.1 ± 0.2 s⁻¹ | 1/τon [1, 4]: 0.82 ± 0.05 s⁻¹ | % Ib (percentage blockage) [1, 5]: 10.89±0.14% | S.D. (noise amplitude of blockage level) [1, 5]: 3.14 ± 0.14 pA | τoff (mean dwell time) [1, 5]: 72.76 ± 2.07 ms | τon (mean inter-event interval) [1, 5]: 979.5 ± 106.1 ms | % Ib (percentage blockage) ([1]; NMP 300 μM in cis, +200 mV, N=3, listed as A): 10.89 ± 0.14% | 1/τoff [1, 6]: 13.8 ± 0.4 s⁻¹ | 1/τon [1, 6]: 1.03 ± 0.11 s⁻¹ | 1/τoff [1, 7]: 14.6 ± 1.1 s⁻¹ | 1/τon [1, 7]: 1.19 ± 0.08 s⁻¹ | 1/τoff [1, 8]: 14.4 ± 1.8 s⁻¹ | 1/τon [1, 8]: 1.39 ± 0.07 s⁻¹ | sensing events with MspA-PBA ([1]; analyte 1 mM in cis, +200 mV): Successive appearance of AMP sensing events was observed | Calibration coefficient δ (NMP binding events per unit concentration per min) ([1]; sole NMP 300 μM in cis, +200 mV, three independent measurements): 0.21 ± 0.02 µM⁻¹ min⁻¹ | 1/τoff [1, 9]: 30.5 ± 1.7 s⁻¹ | 1/τon [1, 9]: 0.45 ± 0.03 s⁻¹ | 1/τoff [1, 10]: 27.6 ± 1.9 s⁻¹ | 1/τon [1, 10]: 0.71 ± 0.12 s⁻¹ | 1/τoff [1, 11]: 24.2 ± 2.1 s⁻¹ | 1/τon [1, 11]: 1.13 ± 0.08 s⁻¹ | 1/τoff [1, 12]: 18.0 ± 1.4 s⁻¹ | 1/τon [1, 12]: 1.23 ± 0.11 s⁻¹ | 1/τoff [1, 13]: 14.5 ± 1.8 s⁻¹ | 1/τon [1, 13]: 1.38 ± 0.08 s⁻¹ | binding events with M2 MspA [2]: No binding events were observed
